Laboratory results taken from the NIST ThermoML archive (doi:10.1021/je100484n).

Experiments:
[1] = xn = mol fraction of the nth substance listed; conditions: 101 kPa, Liquid
[2] = refractive index (Na D-line) (dimensionless); xn = mol fraction of the nth substance listed; conditions: 101 kPa, Liquid

CC(C)(C)O [2-methylpropan-2-ol] + CCCCCCC
Conditions | mass density, 303.15 K [kg/m3] | mass density, 308.15 K [kg/m3] | mass density, 313.15 K [kg/m3] | mass density, 318.15 K [kg/m3] | mass density, 323.15 K [kg/m3] | refractive index, 303.15 K | refractive index, 308.15 K | refractive index, 313.15 K | refractive index, 318.15 K | refractive index, 323.15 K
[1], x1 = 0.1006 | 679.898 | 675.406 | 670.867 | 666.278 | 661.645 | – | – | – | – | –
[1], x1 = 0.1502 | 682.8 | 678.262 | 673.669 | 669.017 | 664.315 | – | – | – | – | –
[1], x1 = 0.2 | 685.899 | 681.327 | 676.692 | 671.995 | 667.235 | – | – | – | – | –
[1], x1 = 0.3 | 692.705 | 688.078 | 683.382 | 678.612 | 673.771 | – | – | – | – | –
[1], x1 = 0.4 | 700.298 | 695.628 | 690.882 | 686.056 | 681.144 | – | – | – | – | –
[1], x1 = 0.4998 | 708.705 | 703.995 | 699.207 | 694.329 | 689.366 | – | – | – | – | –
[1], x1 = 0.6 | 718.327 | 713.568 | 708.726 | 703.799 | 698.776 | – | – | – | – | –
[1], x1 = 0.7 | 729.448 | 724.603 | 719.685 | 714.683 | 709.587 | – | – | – | – | –
[1], x1 = 0.7998 | 742.308 | 737.338 | 732.305 | 727.201 | 721.991 | – | – | – | – | –
[1], x1 = 0.8479 | 749.34 | 744.297 | 739.195 | 734.015 | 728.76 | – | – | – | – | –
[1], x1 = 0.8998 | 757.564 | 752.448 | 747.271 | 742.022 | 736.693 | – | – | – | – | –
[1], x1 = 0.9499 | 766.164 | 760.994 | 755.749 | 750.424 | 745.02 | – | – | – | – | –
[1], x1 = 1 | 775.412 | 770.193 | 764.884 | 759.488 | 754.015 | – | – | – | – | –
[2], x1 = 0.1006 | – | – | – | – | – | 1.3814 | 1.37865 | 1.37591 | 1.37312 | 1.37031
[2], x1 = 0.1502 | – | – | – | – | – | 1.38092 | 1.37816 | 1.37539 | 1.37258 | 1.36973
[2], x1 = 0.2 | – | – | – | – | – | 1.38051 | 1.37775 | 1.37496 | 1.37213 | 1.36928
[2], x1 = 0.3 | – | – | – | – | – | 1.37984 | 1.37711 | 1.37431 | 1.37149 | 1.36865
[2], x1 = 0.4 | – | – | – | – | – | 1.37936 | 1.37667 | 1.37387 | 1.37108 | 1.36828
[2], x1 = 0.4998 | – | – | – | – | – | 1.37907 | 1.37641 | 1.3736 | 1.37085 | 1.36807
[2], x1 = 0.6 | – | – | – | – | – | 1.37899 | 1.37633 | 1.3735 | 1.37079 | 1.36801
[2], x1 = 0.7 | – | – | – | – | – | 1.37917 | 1.37649 | 1.37364 | 1.37094 | 1.36814
[2], x1 = 0.7998 | – | – | – | – | – | 1.37969 | 1.37697 | 1.37411 | 1.37139 | 1.36855
[2], x1 = 0.8479 | – | – | – | – | – | 1.38009 | 1.37735 | 1.37449 | 1.37175 | 1.36889
[2], x1 = 0.8998 | – | – | – | – | – | 1.38066 | 1.37791 | 1.37505 | 1.37229 | 1.36942
[2], x1 = 0.9499 | – | – | – | – | – | 1.38136 | 1.3786 | 1.37577 | 1.37297 | 1.37009
[2], x1 = 1 | – | – | – | – | – | 1.38222 | 1.37947 | 1.37667 | 1.37384 | 1.37097
